Measurements published in patent publication US20150119363A1, “METHODS OF TREATING BACTERIAL INFECTIONS” (Rampex Pharmaceuticals, Inc., priority 2012, published 2015).

Tests used:
ECL1004 NMC-A = experiment: Dose titration biapenem potentiation assay (MPC1); type: cell-based, Enterobacter cloacae; conditions: biapenem 1 μg/mL
Method in brief: (§1)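 Growth of carbapenemase-expressing strains measured with biapenem held at a sub-inhibitory 1 μg/mL; BLI compounds titrated from a top concentration of 40 μg/mL. MPC1 is the inhibitor concentration that restores growth inhibition by biapenem.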

[1] = system: Acinetobacter baumannii AB1057 (OXA-58); experiment: Checkerboard assay, biapenem potentiation (MPC8); type: cell-based; conditions: concentration to reduce biapenem MIC 8-fold
Method: (§2) The potency and spectrum of β-lactamase inhibitors was determined by assessing their antibiotic potentiation activity.
(§3) The potentiation effect is observed by the reduction of the minimum inhibitory concentration of β-lactam antibiotics in the presence of β-lactamase inhibitors (BLIs). […] Methods for Dilution of Antimicrobial Susceptibility Tests for Bacteria That Grow Aerobically—Eighth Edition; Approved Standard. CLSI Document M07-A8, 2009). In this assay, multiple dilutions of two drugs, namely BLI and β-lactam (biapenem), are being tested, alone and in combination, at concentrations equal to, above and below their respective minimal inhibitory concentrations (MICs). BLIs are solubilized in 10% DMSO at 10 mg/mL. Stock solutions are further diluted, according to the needs of a particular assay, in Mueller Hinton Broth (MHB). Stock solution can be stored at −80° C.
(§4) The checkerboard (CB) assay is performed in microtiter plates. Biapenem is diluted in the x axis, each column containing a single concentration of antibiotic. BLIs are diluted in the y axis, each row containing an equal concentration of BLI. The result of these manipulations is that each well of the microtiter plate contains a unique combination of concentrations of the two agents. The assay is performed in MHB with a final bacterial inoculum of 5×10^5 CFU/mL (from an early-log phase culture). Microtiter plates are incubated during 20 h at 35° C. and are read using a microtiter plate reader (Molecular Devices) at 650 nm as well as visual observation using a microtiter plate reading mirror.
(§5) Biapenem is a carbapenem β-lactam; only selected β-lactamases confer resistance to this class of antibiotics. Among them are serine carbapemenases that belong to class A and class D. Biapenem potentiation is studied in strains expressing various carbapenemases from these classes using CB assays. […] Cyclic boronic acid derivatives were capable of reducing biapenem MICs up to 1000-fold (Table 3).

[2] = system: Klebsiella pneumoniae KP1004 (KPC-2); experiment: Checkerboard assay, biapenem potentiation (MPC8); type: cell-based; conditions: concentration to reduce biapenem MIC 8-fold
Method: as §2, §3, §4, §5

[3] = system: Acinetobacter baumannii AB1054 (OXA-23); experiment: Checkerboard assay, biapenem potentiation (MPC8); type: cell-based; conditions: concentration to reduce biapenem MIC 8-fold
Method: as §2, §3, §4, §5

[4] = system: bacterial strains that expressed the beta-lactamase, KPC-2 alone or in combination with NDM-1; experiment: Biapenem MIC at various concentrations of Compound 5 (summary); type: cell-based
EC1007 KPC-3 = experiment: Dose titration biapenem potentiation assay (MPC1); type: cell-based, Escherichia coli; conditions: biapenem 1 μg/mL
Method in brief: as §1

KP1004 KPC-2 = experiment: Dose titration biapenem potentiation assay (MPC1); type: cell-based, Klebsiella pneumoniae; conditions: biapenem 1 μg/mL
KP1008 KPC-2 = experiment: Dose titration biapenem potentiation assay (MPC1); type: cell-based, Klebsiella pneumoniae; conditions: biapenem 1 μg/mL
[5] = system: E. coli EC1061 (NDM-1 CMY-6); experiment: Aztreonam/Tigemonam MIC at various concentrations of BLI; type: cell-based; conditions: EC1061
Method: MIC values for each bacterial strain were measured for each antimicrobial compound at various concentrations of each BLI. […]

[6] = system: bacterial strains that expressed the beta-lactamase, NDM-1 and CMY-6; experiment: Aztreonam/Tigemonam MIC at various concentrations of BLI (summary); type: cell-based
Method: (§6) MIC values for each bacterial strain were measured for each antimicrobial compound at various concentrations of each BLI.

[7] = system: Klebsiella pneumonia (KP1004) KPC-2; experiment: Biapenem MIC at various concentrations of Compound 5; type: cell-based; conditions: KP1004 KPC-2
[8] = system: Klebsiella pneumonia (KPM1097) NDM-1, KPC-2; experiment: as above; type: cell-based; conditions: KPM1097 NDM-1, KPC-2
[9] = system: K. pneumoniae KP1081 (NDM-1, CMY-6, SHV-11, CTX-M-15, TEM-1); experiment: Aztreonam/Tigemonam MIC at various concentrations of BLI; type: cell-based; conditions: KP1081
Method: as §6

O=C(O)C[C@@H]1CC[C@H](NC(=O)Cc2cccs2)B(O)O1 [Compound 5, 2-((3R,6S)-2-hydroxy-3-(2-(thiophen-2-yl)acetamido)-1,2-oxaborinan-6-yl)acetic acid]
BPM MPC1 ECL1004 NMC-A (ECL1004 NMC-A): X (X = MPC1 of less than 1 μg/mL.)
MPC8 [1]: Z (Z = MPC8 of greater than 1 μg/mL.)
MPC8 [2]: X (X = MPC8 of less than 0.16 μg/mL.)
MPC8 [3]: Z (Z = MPC8 of greater than 1 μg/mL.)
effect on Biapenem MIC [4]: decreased the Biapenem MIC
BPM MPC1 EC1007 KPC-3 (EC1007 KPC-3): X (X = MPC1 of less than 1 μg/mL.)
BPM MPC1 KP1004 KPC-2 (KP1004 KPC-2): X (X = MPC1 of less than 1 μg/mL.)
BPM MPC1 KP1008 KPC-2 (KP1008 KPC-2): X (X = MPC1 of less than 1 μg/mL.)
Aztreonam MIC (μg/ml) in the presence of BLI ([5]; Compound 5 0.31 μg/ml): 4 µg/mL
Aztreonam MIC (μg/ml) in the presence of BLI ([5]; Compound 5 0.63 μg/ml): 4 µg/mL
Aztreonam MIC (μg/ml) in the presence of BLI ([5]; Compound 5 5 μg/ml): 0.5 µg/mL
Aztreonam MIC (μg/ml) in the presence of BLI ([5]; Compound 5 10 μg/ml): 0.5 µg/mL
Aztreonam MIC (μg/ml) in the presence of BLI ([5]; Compound 5 20 μg/ml): 0.5 µg/mL
Aztreonam MIC (μg/ml) in the presence of BLI ([5]; Compound 5 […]): 2 µg/mL
effect on Aztreonam or Tigemonam MICs [6]: decreased the Aztreonam or Tigemonan MICs
Biapenem MIC ([7]; Compound 5 0.31 μg/ml): 0.5 µg/mL
Biapenem MIC ([7]; Compound 5 0.63 μg/ml): 0.25 µg/mL
Biapenem MIC ([7]; Compound 5 5 μg/ml): 0.06 µg/mL
Biapenem MIC (μg/ml) ([7]; Compound 5 10 μg/ml): ≦0.03 μg/ml
Biapenem MIC (μg/ml) ([7]; Compound 5 20 μg/ml): ≦0.03 μg/ml
Biapenem MIC ([8]; Compound 5 0.31 μg/ml): 2 µg/mL
Biapenem MIC ([8]; Compound 5 0.63 μg/ml): 1 µg/mL
Biapenem MIC ([8]; Compound 5 5 μg/ml): 1 µg/mL
Biapenem MIC ([8]; Compound 5 10 μg/ml): 1 µg/mL
Biapenem MIC ([8]; Compound 5 20 μg/ml): 1 µg/mL
Biapenem MIC ([8]; Compound 5 […]): 1 µg/mL
Aztreonam MIC (μg/ml) in the presence of BLI ([9]; Compound 5 0.31 μg/ml): 256 µg/mL
Aztreonam MIC (μg/ml) in the presence of BLI ([9]; Compound 5 0.63 μg/ml): 128 µg/mL
Aztreonam MIC (μg/ml) in the presence of BLI ([9]; Compound 5 5 μg/ml): 8 µg/mL
Aztreonam MIC (μg/ml) in the presence of BLI ([9]; Compound 5 10 μg/ml): 4 µg/mL
Aztreonam MIC (μg/ml) in the presence of BLI ([9]; Compound 5 20 μg/ml): 2 µg/mL
